Source: US20050159345A1 (Boehringer Ingelheim International GmbH, priority 2002, published 2005)
Like-named read-outs stand apart in the source and are kept apart here.

Legend:
[1] = target: T1, HCV 1a NS3-NS4A heterodimer protein (Hepatitis C virus genotype 1a, UniProt P27958); test: In vitro HCV NS3 protease assay (fluorogenic depsipeptide), genotype 1a; format: biochemical
T1 construct: Co-purification of mature NS3 and NS4A protein complex was verified by Western blot analysis; made in house; host or cells: Sf21 insect cells, recombinant baculovirus (pFastBac HTa)
T1 sequence (P27958 1027-1657): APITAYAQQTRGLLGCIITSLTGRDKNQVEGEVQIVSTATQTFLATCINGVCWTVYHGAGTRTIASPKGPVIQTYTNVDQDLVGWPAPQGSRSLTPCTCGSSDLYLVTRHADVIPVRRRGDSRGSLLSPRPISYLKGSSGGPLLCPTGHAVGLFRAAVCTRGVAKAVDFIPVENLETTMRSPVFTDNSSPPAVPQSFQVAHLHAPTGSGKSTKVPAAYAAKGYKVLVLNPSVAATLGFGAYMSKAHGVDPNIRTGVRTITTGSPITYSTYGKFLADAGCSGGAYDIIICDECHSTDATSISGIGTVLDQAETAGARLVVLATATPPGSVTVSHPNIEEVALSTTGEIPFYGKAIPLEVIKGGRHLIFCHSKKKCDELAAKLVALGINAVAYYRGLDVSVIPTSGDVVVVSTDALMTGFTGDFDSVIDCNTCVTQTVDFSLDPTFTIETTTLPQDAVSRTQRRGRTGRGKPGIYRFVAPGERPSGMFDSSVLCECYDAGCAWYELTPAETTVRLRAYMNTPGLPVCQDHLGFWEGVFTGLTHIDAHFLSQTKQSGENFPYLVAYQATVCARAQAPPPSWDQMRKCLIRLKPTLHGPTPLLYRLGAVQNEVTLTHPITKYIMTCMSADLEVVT
T1 sequence (P27958 1658-1711): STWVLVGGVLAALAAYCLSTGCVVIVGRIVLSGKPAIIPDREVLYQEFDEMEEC
Description: For production of the HCV genotype 1b NS3-NS4A heterodimer protein, a full-length HCV cDNA was cloned by RT-PCR using RNA extracted from the serum of an HCV genotype 1b infected individual (provided by Dr. Bernard Willems, Hôpital St-Luc, Montréal, Canada). […] For HCV genotype 1a, the DNA encoding NS3-NS4A heterodimer protein was PCR-amplified (forward primer: 5′[sequence]3′ (SEQ ID No.3); reverse primer: 5′[sequence]3′ (SEQ ID No.4)) from the HCV genotype la strain H77 (provided by ViroPharma Inc., Exton, Pa., U.S.) and subcloned as described above. The cloning into the pFastBac™ HTa baculovirus expression vector generated a recombinant fusion protein containing an additional N-terminal 28 residues that comprised a hexahistidine tag and a rTEV protease cleavage site. The Bac-to-Bac™ baculovirus expression system (Gibco/BRL) was used to produce the recombinant baculovirus for protein expression.
His-tagged NS3-NS4A heterodimer protease was expressed by infecting Sf21 insect cells (Invitrogen) at a density of 10^6 cells/mL with the recombinant baculovirus at a multiplicity of infection of 0.1-0.2 at 27° C. The infected culture was harvested 48 to 64 h later by centrifugation at 4° C. The cell pellet was homogenized in 50 mM sodium phosphate, pH 7.5, 40% glycerol (w/v), 2 mM β-mercaptoethanol. His-NS3-NS4A heterodimer protease was then extracted from the cell lysate with 1.5% NP-40, 0.5% Triton X-100, 0.5M NaCl, and a DNase treatment. […]

[2] = target: T2, HCV 3a NS3-NS4A heterodimer protein (UniProt Q81258); test: In vitro HCV NS3 protease assay (fluorogenic depsipeptide), genotype 3a; format: biochemical, HCV genotype 3a; conditions: read-out: IC50 HCV-3a; HCV 3a NS3-NS4A protease
T2 construct: fused on or other part: 28 extra N-terminal residues with a hexahistidine tag and an rTEV cleavage site
T2 sequence (Q81258 1033-1663): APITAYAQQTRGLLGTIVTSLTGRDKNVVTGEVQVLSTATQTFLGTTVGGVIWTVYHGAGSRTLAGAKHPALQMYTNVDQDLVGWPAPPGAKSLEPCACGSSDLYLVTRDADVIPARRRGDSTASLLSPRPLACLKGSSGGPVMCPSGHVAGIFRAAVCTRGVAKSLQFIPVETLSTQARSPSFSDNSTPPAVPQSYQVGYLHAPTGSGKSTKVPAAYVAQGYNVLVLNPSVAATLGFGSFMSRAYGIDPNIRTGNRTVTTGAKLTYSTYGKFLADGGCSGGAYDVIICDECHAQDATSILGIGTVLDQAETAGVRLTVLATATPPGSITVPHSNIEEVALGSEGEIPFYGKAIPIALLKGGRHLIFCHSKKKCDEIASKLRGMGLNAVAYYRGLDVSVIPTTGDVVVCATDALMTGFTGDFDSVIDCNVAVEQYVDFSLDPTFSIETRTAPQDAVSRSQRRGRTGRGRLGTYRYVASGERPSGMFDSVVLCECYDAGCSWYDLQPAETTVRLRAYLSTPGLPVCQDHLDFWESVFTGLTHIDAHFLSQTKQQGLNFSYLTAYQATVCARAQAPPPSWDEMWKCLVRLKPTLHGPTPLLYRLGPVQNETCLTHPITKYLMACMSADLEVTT
Description: The NS3-NS4 protease genes of HCV genotypes 2b and 3a were amplified from RNA isolated from clinical samples of HCV-infected patients obtained from Dr. G. Steinmann (Germany) using RT-PCR. The primers used for the RT-PCR were 5′[…]3′ (SEQ ID No. 6) as the forward and 5′[…]3′ (SEQ ID No.7) as the reverse primer for the NS3-NS4A of HCV genotype 2b and; 5′[…]3′ (SEQ ID No. 8) as the forward and 5′[…]3′ (SEQ ID No. 9) as the reverse primer for HCV genotype 3a. Each primer contained a unique restriction site for subcloning the fragment in the bacterial expression vector pET11a. The cloning into the vector generated a recombinant fusion protein containing an additional N-terminal 28 residues that comprised a hexahistidine tag and a rTEV protease cleavage site. The recombinant plasmids were used to transform the bacterial strain BL21 DE3 pLysS for protein expression and recombinant protein expression was induced by the addition of IPTG. Following expression, the cells were collected by centrifugation at 4° C. and the cell pellet lysed in a buffer containing 50 mM sodium phosphate, 0.5M NaCl, 40% glycerol, 1.5% NP-40, 0.5% Triton X-100 and the soluble protein fraction was passed through a 5ml HiTrap chelating affinity column as described above. A poly(U)-Sepharose purification step can optionally be conducted in order to remove degradation products and contaminants. […]
The fluorescence was monitored using the BMG POLARstar Galaxy 96-well plate reader with an excitation filter of 320 nm, and an emission filter of 405 nm. The level of inhibition (% inhibition) of each well containing test compound was calculated with the following equation (FU=fluorescence unit): [formula]
The calculated % inhibition values were then used to determine IC50, slope factor (n) and maximum inhibition (Imax) by the non-linear regression routine NLIN procedure of SAS using the following equation: [formula] […]

[3] = HCV 1a NS3-NS4A protease, read-out: IC50 HCV-1a

## COc1ccc2c(O[C@@H]3C[C@H]4C(=O)N[C@]5(C(=O)O)CC5/C=C\CCCCC[C@H](NC(=O)OC(C)(C)C)C(=O)N4C3)cc(-c3csc(NC(C)=O)n3)nc2c1 (stereo partly drawn) [III]
[1]; [3]
  IC50: 4.1 nM
[2]
  IC50: 190 nM

## COc1ccc2c(O[C@@H]3C[C@H]4C(=O)N[C@]5(C(=O)O)CC5/C=C\CCCCC[C@H](NC(=O)OC(C)(C)C)C(=O)N4C3)cc(-c3ccccc3)nc2c1 (stereo partly drawn) [II]
[1]; [3]
  IC50: 7.8 nM
[2]
  IC50: 360 nM

## COc1ccc2c(O[C@@H]3C[C@H]4C(=O)N[C@]5(C(=O)O)CC5/C=C\CCCCC[C@H](NC(=O)OC5CCCC5)C(=O)N4C3)cc(-c3csc(NC(C)C)n3)nc2c1 (stereo partly drawn) [IV]
[1]
  IC50: 4.3 nM
[2]
  IC50: 280 nM
